Structures can show the parent of a compound that is named as a salt.
Tested on: gastric acid secretion
Experiment: Acute Gastric Fistula, Rat: inhibition of gastric acid secretion (Total Acid Output)
Assay type: in vivo, Female Sprague-Dawley rats
Conditions: po, 1 h, one hour prior to surgery, dose for average 50% inhibition in Total Acid Output versus controls, collection at one hour
Procedure: The compounds of the invention are useful for inhibition of gastric acid secretion as measured by the following test. Female Sprague-Dawley rats are fasted twenty-four hours before testing and are given water ad libidum while being kept in individual cages. On the day of testing, the rats are weighed and are selected so that the rats in each test weigh within a range ±20 grams.
Surgery is carried out under light ether anesthesia. As soon as the rat is anesthetized its teeth are removed and a mid-line incision is made on the abdomen about 11/2 inches in length and the stomach and duodenum are exposed. If at this point the stomach is filled with food or fecal material, the rat is discarded. If the condition of the stomach is acceptable, a purse string stitch is placed on the fundic portion of the stomach with a suture, taking care not to pierce any blood vessels in the area. A small nick is then made into the stomach in the center of the purse string, and a cannula, consisting of a small vinyl tube with a flange on one end, is put into the stomach, and the purse string stitch is closed tightly around the flange. The test compound is administered either intraduodenally (i.d.) immediately after surgery or orally (p.o.) one hour prior to surgery at doses generally ranging from about 0.25 to about 160 mg/kg in a volume of 0.5 ml/100 grams rat. Control rats receive the test vehicle, 0.5% aqueous methyl cellulose.
After the surgery and (in the case of i.d. administration) after administration of the test compound, the abdominal wall and skin are closed simultaneously with three or four 18 mm wound clips and a collecting tube is placed on the cannula. Each rat is then placed in a box in which a longitudinal slit has been made to allow the cannula to hang freely and to allow the rat to move about unencumbered. After the rat has been allowed to stabilize for thirty minutes, the collection tube on the cannula is discarded and replaced with a clean tube to receive the gastric juice. Collections are made at one hour. At the end of the study, the cannula is removed and the rat is sacrificed.
The sample of gastric contents collected is drained into a centrifuge tube and centrifuged to pack down the sediment. The volume is read and a 1 ml aliquot of the supernatant is put into a beaker containing 10 ml distilled water and is titrated to pH 7 using 0.01 N sodium hydroxide. Results are determined for Volume, Titratable Acid and Total Acid Output, where Volume equals total ml of gastric juice minus sediment; Titratable Acid (meq/l) equals amount of 0.01 N sodium hydroxide needed to titrate the acid to pH 7; and Total Acid Output equals Titratable Acid times Volume. Results are reported as the ED50 dose (mg/kg required to produce an average of 50% inhibition in Total Acid Output versus controls in all the animals tested for a particular compound) and as percent inhibition.
The results obtained for representative compounds of the invention by the above test for inhibition of gastric secretion are shown in Table I: […]

| Compound | ED50 |
| --- | --- |
| CC1(CCCCCCN=CN2CCC(C(c3ccccc3)c3ccccc3)CC2)OCCO1 [Example 1, 4-(Diphenylmethyl)-1-{{[6-(2-methyl-1,3-dioxolan-2-yl)hexyl]imino}methyl}piperidine (E)-2-Butenedioate (1:1) Hydrate (10:7)] | 3.14 mg/kg |
| CC(=O)CCCCCCN=CN1CCC(C(c2ccccc2)c2ccccc2)CC1 [Example 2, 4-(Diphenylmethyl)-1-{[(7-oxooctyl)imino]methyl}piperidine (E)-2-Butenedioate (1:1) Hydrate (10:7)] | 14.7 mg/kg |
| CC(O)CCCCCCN=CN1CCC(C(c2ccccc2)c2ccccc2)CC1 (stereo not drawn) [Example 3, 4-(Diphenylmethyl)-1-{[(7-hydroxyoctyl)imino]methyl}piperidine 2-Naphthalenesulfonate (1:1) Hydrate (4:1)] | 78.1 mg/kg |
| CC(CCCCCCN=CN1CCC(C(c2ccccc2)c2ccccc2)CC1)=NO [Example 4, 4-(Diphenylmethyl)-1-{{[7-(hydroxyimino)octyl]imino}methyl}piperidine 2-Naphthalenesulfonate (1:1) Hydrate (5:1)] | 12.3 mg/kg |
| CC(=O)CCCCCCCCN=CN1CCC(C(c2ccccc2)c2ccccc2)CC1 [Example 5] | 4.76 mg/kg |
| CC(=O)CN=CN1CCC(C(c2ccccc2)c2ccccc2)CC1 [Example 6, 4-Diphenylmethyl-1-[(2-oxopropyl)imino]methyl piperidine Hydrochloride (1:1) Hydrate (10:1)] | 6.07 mg/kg |
